Reference: patent US10662193B2, “Carbazole and carboline compounds for use in the diagnosis, treatment, alleviation or prevention of disorders associated with amyloid or amyloid-like proteins” (AC IMMUNE SA, priority 2014, dated 2020)

Assays:
[1] = tested on: tau tangles/Aβ plaques on AD brain sections; experiment: Assay 1: direct staining of human Alzheimer's disease brain sections (fluorescence); type: binding; settings: 100 μM; FIG. 1
In short: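 Frozen […] amygdala sections from Braak V-VI AD donors, PFA-fixed, incubated with compound at 100 μM in 50% ethanol for 20 min at room temperature in the dark. Sudan Black quenched autofluorescence, then staining detected by fluorescence microscopy.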

AD brain-enriched PHF = AD brain-enriched PHF (Homo sapiens, UniProt P10636); experiment: Assay 2 (filter trap): radio-binding assay, determination of the dissociation constant (Kd) on PHF; settings: tritiated ligand 1.25-50 nM, PHF diluted 1/80, 45 min 37° C.
Description: Enrichment of Paired Helical Filaments (PHF's) from Human Alzheimer's Disease Brain
50 g of frontal lobe tissue from post-mortem brain of an Alzheimer's disease (AD) patient were obtained from the London Tissue Bank. The patient was a […] and died […]. The brain sample was collected 5 hours post-mortem and characterized for Braak disease stage (Braak, H.; Braak, E. Acta Neuropathol., 1991, 82, 239-259) as stage VI. […]
AD brain-enriched PHF were diluted 1/80 (with an estimated tau concentration of 62.5 ng/ml and incubated with [^3H]RefA at different concentrations ranging from 50 nM to 1.25 nM. The reaction was performed in a final volume of 70 μL PBS with 2.8% DMSO, for 45 min at 37° C. 30 μL of samples in duplicates were then filtered under vacuum on a GF/B filter plate (PerkinElmer 6005177) to trap the PHF with the bound radio-ligand, and washed three times with PBS. The GF/B filters were then vacuum-dried, 20 μL scintillation liquid (PerkinElmer 1200-436) was added in each well, and the filters were analyzed on a Microbeta Trilux device. […] Specific binding was calculated by subtracting the non-specific signal to the total signal. […] The Kd values were calculated by nonlinear regression, one site specific binding using Prism V5 (GraphPad). […]

[2] = biological target: T1, in vitro aggregated Abeta1-42 (Homo sapiens, UniProt P05067); experiment: Assay 2 (filter trap): [3H]RefA radio-binding assay, Kd on aggregated Abeta1-42; settings: Table 23; aggregated Abeta1-42 versus AD brain-enriched PHF
T1 construct: Abeta1-42 (Bachem, Switzerland) peptide films were re-suspended in 1% DMSO; purchased Bachem, Switzerland
Description: Preparation of Full-Length Tau and Abeta1-42 Aggregates
Recombinant human full-length Tau441 (flTau) was expressed in bacteria and purified in the laboratory of Professor Hilal Lashuel (EPFL, Switzerland). A solution of 8 μM (400 μg/mL) flTau in PBS, 10 μM DTT and 5 μM heparin (all from Sigma-Aldrich) was gently mixed (cradled) for 3 days at 37° C. Cradled flTau aggregates were used at a final concentration of 20 μg/mL in all binding assays. Abeta1-42 (Bachem, Switzerland) peptide films were re-suspended in 1% DMSO and diluted in PBS to a 33 μM (150 μg/mL) suspension that was sonicated until complete dissolution. Aggregation process was done at 37° C. for 24 hours. […]
AD brain-enriched PHF were diluted 1/80 (with an estimated tau concentration of 62.5 ng/ml and incubated with [^3H]RefA at different concentrations ranging from 50 nM to 1.25 nM. The reaction was performed in a final volume of 70 μL PBS with 2.8% DMSO, for 45 min at 37° C. 30 μL of samples in duplicates were then filtered under vacuum on a GF/B filter plate (PerkinElmer 6005177) to trap the PHF with the bound radio-ligand, and washed three times with PBS. The GF/B filters were then vacuum-dried, 20 μL scintillation liquid (PerkinElmer 1200-436) was added in each well, and the filters were analyzed on a Microbeta Trilux device. […] Specific binding was calculated by subtracting the non-specific signal to the total signal. […]

AD brain-enriched PHF, sequence (P10636 623-708 limits assumed): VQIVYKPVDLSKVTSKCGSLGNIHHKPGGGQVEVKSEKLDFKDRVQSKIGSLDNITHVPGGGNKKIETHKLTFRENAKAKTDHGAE
T1 sequence (P05067 672-713 limits assumed): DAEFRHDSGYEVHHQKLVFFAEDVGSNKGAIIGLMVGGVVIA

- Kd (AD brain-enriched PHF): 35 nM
- Fold increase on Abeta1-42 vs PHF [2]: 5
SMILES: CNc1ccc(-c2ccc3ccc(O)cc3n2)cc1 [RefA]
- direct staining of tau tangles on AD brain section [1]: direct staining of tau tangles
